The experiment addresses T1, human PRMT3 (Homo sapiens, UniProt O60678).
T1 construct: GST-tagged PRMT3; made in house; host or cells: E. coli BL21(DE3) Gold
Briefly: PRMT3 Biochemical Assay (3H-SAM Flashplate, peptide substrate). As to conditions: 30 min preincubation. The text has this:
Peptide containing the classic RMT substrate motif was synthesized with an N-terminal linker-affinity tag motif and a C-terminal amide cap by 21st Century Biochemicals. The peptide was purified by high-performance liquid chromatography (HPLC) to greater than 95% purity and confirmed by liquid chromatography mass spectrometry (LC-MS). The sequence was Biot-Ahx-[…]-amide (SEQ ID NO:11).
Full-length human PRMT3 (NM_005788.3) isoform 1 transcript clone was amplified from an HEK 293 cDNA library and subcloned into pGEX-KG (GE Life Sciences). The resulting construct encodes an N-terminal GST tag and a thrombin cleavage sequence
GST-tagged PRMT3 was eluted with 50 mM Tris, 2 mM glutathione, pH 7.1 and 50 mM Tris, 20 mM glutathione, pH 7.1. Pooled fractions were dialysed in 20 mM Tris, 50 mM NaCl, 5% glycerol, 1 mM EDTA, 1 mM DTT, pH7.5 (Buffer B) and applied to a Q Sepharose Fast Flow column. GST-tagged PRMT3 was eluted by 500 mM NaCl in buffer B. Pooled fractions were dialyzed in 25 mM phosphate buffer, 100 mM NaCl, 5% glycerol, 2 mM DTT, pH 6.8 (Buffer C) and loaded on to a ceramic hydroxyapatite column. GST-tagged PRMT3 eluted with 25-400 mM phosphate in buffer C. Protein was concentrated and buffer was exchanged to 20 mM Tris, 150 mM NaCl, 5% glycerol, 5 mM β-mercaptoethanol, pH7.8 by ultrafiltration. The purity of recovered protein was 70%.
General Procedure for PRMT3 Enzyme Assays on Peptide Substrates.
The assays were all performed in a buffer consisting of 20 mM Bicine (pH=7.6), 1 mM TCEP, 0.005% BSG, and 0.002% Tween 20, prepared on the day of use. Compounds in 100% DMSO (1 ul) were spotted into a polypropylene 384-well V-bottom plates (Greiner) using a Platemate Plus outfitted with a 384-channel head (Thermo Scientific). DMSO (1 ul) was added to Columns 11, 12, 23, 24, rows A-H for the maximum signal control and 1 ul of SAH, a known product and inhibitor of PRMT3, was added to columns 11, 12, 23, 24, rows I-P for the minimum signal control. A cocktail (40 ul) containing the PRMT3 enzyme was added by Multidrop Combi (Thermo-Fisher). The compounds were allowed to incubate with PRMT3 for 30 min at room temperature, then a cocktail (10 ul) containing SAM and peptide was added to initiate the reaction (final volume=51 ul). The final concentrations of the components were as follows: PRMT3 was 0.5 nM, ^3H-SAM was 100 nM, non-radiolabeled SAM was 1.8 uM, peptide was 330 nM, SAH in the minimum signal control wells was 1 mM, and the DMSO concentration was 2%. The assays were stopped by the addition of potassium chloride (10 ul) to a final concentration of 100 mM. 50 ul of the reaction in the 384-well polypropylene plate was then transferred to a 384-well Flashplate and the biotinylated peptides were allowed to bind to the streptavidin surface for at least 1 hour before being washed once with 0.1% Tween20 in a Biotek ELx405 plate washer. The plates were then read in a PerkinElmer TopCount plate reader to measure the quantity of ^3H-labeled peptide bound to the Flashplate surface, measured as disintegrations per minute (dpm) or alternatively, referred to as counts per minute (cpm).
Where dpm=disintegrations per minute, cmpd=signal in assay well, and min and max are the respective minimum and maximum signal controls.
Where top and bottom are the normally allowed to float, but may be fixed at 100 or 0 respectively in a 3-parameter fit. The Hill Coefficient normally allowed to float but may also be fixed at 1 in a 3-parameter fit. Y is the % inhibition and X is the compound concentration.
T1 sequence (O60678 with tags, fused parts or gaps): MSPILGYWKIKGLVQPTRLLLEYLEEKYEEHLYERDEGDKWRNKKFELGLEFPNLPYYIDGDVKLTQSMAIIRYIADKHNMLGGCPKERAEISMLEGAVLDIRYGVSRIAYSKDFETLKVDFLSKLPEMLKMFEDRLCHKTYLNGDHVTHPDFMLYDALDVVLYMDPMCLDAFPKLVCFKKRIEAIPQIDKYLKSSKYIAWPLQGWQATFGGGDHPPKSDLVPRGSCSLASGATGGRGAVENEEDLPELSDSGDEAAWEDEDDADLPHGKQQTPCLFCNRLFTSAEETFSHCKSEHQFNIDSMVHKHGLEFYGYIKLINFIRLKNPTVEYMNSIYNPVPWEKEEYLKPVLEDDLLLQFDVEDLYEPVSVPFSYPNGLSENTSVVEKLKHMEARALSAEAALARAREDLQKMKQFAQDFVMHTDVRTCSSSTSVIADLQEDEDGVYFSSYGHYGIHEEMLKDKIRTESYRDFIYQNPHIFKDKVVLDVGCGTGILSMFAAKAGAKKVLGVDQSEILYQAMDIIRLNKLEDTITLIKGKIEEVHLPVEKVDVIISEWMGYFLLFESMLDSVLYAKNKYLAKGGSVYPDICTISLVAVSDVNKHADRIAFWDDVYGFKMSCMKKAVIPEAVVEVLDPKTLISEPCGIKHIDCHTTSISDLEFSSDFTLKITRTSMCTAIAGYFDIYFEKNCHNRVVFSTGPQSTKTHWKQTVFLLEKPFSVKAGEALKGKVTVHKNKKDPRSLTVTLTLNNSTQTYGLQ
By IC50 is commonly meant the point on the concentration scale where inhibition reaches its midpoint. Read a low IC50 as greater potency in that assay. For `CNCCN(C)Cc1c[nH]nc1C#Cc1cccc(OC)c1` [Compound 1], the IC50 is 3.01 to 10 µM.

In turn, `CNCCN(C)Cc1c[nH]nc1C#Cc1ccc(C(C)(C)C)cc1` [Compound 2] showed an IC50 of 1.01 to 3 µM.

`CNCCN(C)Cc1c[nH]nc1C#Cc1ccccc1` [Compound 3] showed an IC50 of 3.01 to 10 µM.

`CNCCN(C)Cc1c[nH]nc1/C=C/c1ccc(-c2ccccc2)cc1` [Compound 5] gave an IC50 of 1.01 to 3 µM.

As for `CNCCN(C)Cc1c[nH]nc1/C=C/c1ccc(C(F)(F)F)cc1` [Compound 6], the IC50 was 3.01 to 10 µM.

Regarding `CNCCN(C)Cc1c[nH]nc1/C=C/c1ccc(OC)cc1` [Compound 7], the IC50 was in the range of 3.01 to 10 µM.

`Cc1ccc(/C=C/c2n[nH]cc2CN(C)CCN)cc1` [Compound 8]: the IC50 was 3.01 to 10 µM.

The compound `COc1cc(/C=C/c2n[nH]cc2CN(C)CCN)cc(OC)c1` [Compound 11] returned a 50% inhibitory concentration (IC50) of 1.01 to 3 µM.

For the compound `CN(CCN)Cc1c[nH]nc1/C=C/c1ccc(F)cc1F` [Compound 13], the IC50 was in the range of 3.01 to 10 µM.

As to `CN(CCN)Cc1c[nH]nc1/C=C/c1cc(C(F)(F)F)cc(C(F)(F)F)c1` [Compound 14], the IC50 is 3.01 to 10 µM.

In turn, `CN(CCN)Cc1c[nH]nc1/C=C/c1cc(F)cc(F)c1` [Compound 15] displayed an IC50 of 1.01 to 3 µM.

Take `CN(CCN)Cc1c[nH]nc1/C=C/c1cccc(C(F)(F)F)c1` [Compound 16]: the IC50 fell in the range of 3.01 to 10 µM.

In turn, `COc1cccc(/C=C/c2n[nH]cc2CN(C)CCN)c1` [Compound 17] showed an IC50 of 1.01 to 3 µM.

In the case of `CN(CCN)Cc1c[nH]nc1/C=C/c1ccc(C(F)(F)F)cc1` [Compound 18], the IC50 was 1.01 to 3 µM.

The compound `COC/C=C/c1n[nH]cc1CN(C)CCN` [Compound 19] showed an IC50 of 3.01 to 10 µM.

Compound `CN(CCN)Cc1c[nH]nc1/C=C/c1cccc(F)c1` [Compound 20] returned an IC50 of 1.01 to 3 µM.

Consider `CN(CCN)Cc1c[nH]nc1C1CCCCC1` [Compound 22], for which the IC50 is 3.01 to 10 µM.

With `CN(CCN)Cc1c[nH]nc1CCc1ccc(F)cc1` [Compound 23, N^1-((3-(4-fluorophenethyl)-1H-pyrazol-4-yl)methyl)-N^1-methylethane-1,2-diamine], the IC50 lay in the range of 3.01 to 10 µM.

These data come from patent US11185531B2, “Arginine methyltransferase inhibitors and uses thereof” (Epizyme, Inc., priority 2013, dated 2021).
